Results published in patent US9539301B2, “Melanotropin ligands for skin care” (THE ARIZONA BOARD OF REGENTS ON BEHALF OF THE UNIVERSITY OF …, priority 2011, dated 2017).
pEC50, pKi: −log10 of the molar value. Values belong to the compound of their own block, whether it stands above or below them. Square brackets hold non-standard residues; d marks the D form. Side chains are listed from the residue outwards. * marks the point of attachment. Cy5 maleimide = Cy5 dye as its maleimide, reacted with a thiol compound; Butanoyl(4-Ph) = O=C(CCCc1ccccc1)*; Mpa = O=C(O)CCS

Tests used:
[1] = target: T1, MC1R (Homo sapiens, UniProt Q01726); settings: read-out: Ki MC1R (values derived from literature); cited from earlier work
T1 sequence (Q01726 whole entry): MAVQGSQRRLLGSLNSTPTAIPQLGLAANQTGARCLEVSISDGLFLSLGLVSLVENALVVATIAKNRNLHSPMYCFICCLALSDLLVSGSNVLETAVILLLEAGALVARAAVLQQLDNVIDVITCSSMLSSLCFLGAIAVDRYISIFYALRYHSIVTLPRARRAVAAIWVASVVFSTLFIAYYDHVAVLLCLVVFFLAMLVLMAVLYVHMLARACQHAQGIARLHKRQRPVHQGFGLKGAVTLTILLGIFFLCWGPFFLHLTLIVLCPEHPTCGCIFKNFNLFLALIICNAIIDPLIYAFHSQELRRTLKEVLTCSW

[2] = target: MC4R (Homo sapiens, UniProt P32245); experiment: Europium competitive binding assay on HEK293/hMC4R cells; design: expressed in transfected cells; host or cells: HEK293
Sequence of MC4R (P32245 whole entry): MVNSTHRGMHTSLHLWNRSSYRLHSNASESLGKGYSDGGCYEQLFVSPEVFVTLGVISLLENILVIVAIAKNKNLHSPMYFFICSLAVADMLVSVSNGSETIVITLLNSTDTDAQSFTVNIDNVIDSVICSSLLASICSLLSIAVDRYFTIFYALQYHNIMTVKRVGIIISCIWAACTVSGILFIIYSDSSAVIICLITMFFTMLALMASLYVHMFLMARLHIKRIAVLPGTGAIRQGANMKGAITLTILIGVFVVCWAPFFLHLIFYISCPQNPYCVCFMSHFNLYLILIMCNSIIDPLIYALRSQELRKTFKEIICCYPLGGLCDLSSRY
Protocol: (§1) HCT116 cells overexpressing hMC1R and HEK293 cells overexpressing hMC4R[23] or hMC5R were used in all studies. […] Cells were maintained under standard conditions (37° C. and 5% CO2) and were grown in Dulbecco's modified Eagle medium (DMEM) supplemented with 10% FBS and 5% penicillin/streptomycin. For HCT116/hMC1R cells, geneticin (G418S, 0.4 mg/mL) was added to the media to ensure proper selection.
Competitive binding assays were performed using HCT116/hMC1R cells and HEK293/hMC4R or hMC5R as previously described, with slight modifications. HCT116/hMC1R cells were plated in black PerkinElmer 96-well plates and HEK293/hMC4R and HEK293/hMC5R cells were plated on SigmaScreen Poly-D-Lysine Coated Plates (SigmaAldrich), all at a density of 10,000-30,000 cells/well. Poly-D-Lysine Coated Plates contain a PDL polymer coating that creates a uniform positive charge at the surface of the plastic, thereby facilitating cell attachment, growth and differentiation. […] Both labeled and non-labeled ligands were diluted in binding media (DMEM, 1 mM 1,10-phenanthroline, 200 mg/L bacitracin, 0.5 mg/L leupeptin, 0.3% BSA). […] Cells were incubated for an additional 30 min at 37° C. prior to reading. […] Competition curves were analyzed with GraphPad Prism software using the sigmoidal dose-response (variable slope) classical equation for nonlinear regression analysis.

[3] = target: T2, MC5R (Homo sapiens, UniProt P33032); experiment: Europium competitive binding assay on HEK293/hMC5R cells; design: expressed in transfected cells; host or cells: HEK293
T2 sequence (P33032 whole entry): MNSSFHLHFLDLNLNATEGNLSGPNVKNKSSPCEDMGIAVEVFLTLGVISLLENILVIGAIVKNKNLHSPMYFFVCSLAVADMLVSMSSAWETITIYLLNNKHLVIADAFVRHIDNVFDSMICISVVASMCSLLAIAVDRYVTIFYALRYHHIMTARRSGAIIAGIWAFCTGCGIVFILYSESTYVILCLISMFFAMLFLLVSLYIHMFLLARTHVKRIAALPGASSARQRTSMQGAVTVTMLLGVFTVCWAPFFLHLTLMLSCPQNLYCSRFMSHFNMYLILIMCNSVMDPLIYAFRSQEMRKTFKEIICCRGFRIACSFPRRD
Protocol: HCT116 cells overexpressing hMC1R and HEK293 cells overexpressing hMC4R[23] or hMC5R were used in all studies. The parental human colorectal carcinoma cell line, HCT116 (American Type Culture Collection, CCL 247) was also used. Cells were maintained under standard conditions (37° C. and 5% CO2) and were grown in Dulbecco's modified Eagle medium (DMEM) supplemented with 10% FBS and 5% penicillin/streptomycin. For HCT116/hMC1R cells, geneticin (G418S, 0.4 mg/mL) was added to the media to ensure proper selection.
Competitive binding assays were performed using HCT116/hMC1R cells and HEK293/hMC4R or hMC5R as previously described, with slight modifications. HCT116/hMC1R cells were plated in black PerkinElmer 96-well plates and HEK293/hMC4R and HEK293/hMC5R cells were plated on SigmaScreen Poly-D-Lysine Coated Plates (SigmaAldrich), all at a density of 10,000-30,000 cells/well. […] Cells were incubated for an additional 30 min at 37° C. prior to reading. The plates were read on a PerkinElmer VICTOR×4 2030 multilabel reader using the standard Eu TRF measurement (340 nm excitation, […], and emission collection for […] at 615 nm). Competition curves were analyzed with GraphPad Prism software using the sigmoidal dose-response (variable slope) classical equation for nonlinear regression analysis. […]

[4] = target: T1, MC1R; experiment: Europium time-resolved fluorescence competitive binding assay (Eu-NDP-α-MSH) on HCT116/hMC1R cells; design: host or cells: HCT116; settings: HCT116/hMC1R cells, competition with Eu-NDP-α-MSH
Protocol: as §1
Competitive binding assays were performed using HCT116/hMC1R cells and HEK293/hMC4R or hMC5R as previously described, with slight modifications. […] Poly-D-Lysine Coated Plates contain a PDL polymer coating that creates a uniform positive charge at the surface of the plastic, thereby facilitating cell attachment, growth and differentiation. […] Both labeled and non-labeled ligands were diluted in binding media (DMEM, 1 mM 1,10-phenanthroline, 200 mg/L bacitracin, 0.5 mg/L leupeptin, 0.3% BSA). In the case of the triblock polymer micelle solutions, micelles were allowed to equilibrate in solution for a period of 30 min prior to cell addition. Cells were incubated with labeled and non-labeled ligands for 1 hour at 37° C. Following incubation, cells were washed three times with wash buffer (50 mM Tris-HCl, 0.2% BSA, 30 mM NaCl) and 50 µL of enhancement solution (PerkinElmer) was added to each well. Cells were incubated for an additional 30 min at 37° C. prior to reading. […] Competition curves were analyzed with GraphPad Prism software using the sigmoidal dose-response (variable slope) classical equation for nonlinear regression analysis.
Competitive binding assays were also performed using 4-targeted triblock polymers, triblock polymer micelles, as well as untargeted micelles as a control (FIG. 4A-C).
Europium binding assays were conducted as previously published.^33, 40
Time-resolved lanthanide fluorescence competitive binding assays^33, 40 were performed in an effort to optimize ligand loading for maximal avidity. In these assays, increasing concentrations of micelles were measured for their ability to competitively displace Eu-labeled NDP-α-MSH 2. The remaining Eu was then measured using time resolved fluorescence (TRF, see Methods).

[5] = system: A375/MC1R xenograft tumor; experiment: Intravital confocal imaging of dorsal skin-fold window chamber tumor xenograft; type: in vivo, SCID mouse; settings: for tumor cell internalization of probe: 24 h after injection
Protocol: All procedures were carried out in compliance with the Guide for the Care and Use of Laboratory Animal Resources (1996), National Research Council, and approved by the Institutional Animal Care and Use Committee, University of South Florida. A dorsal skin-fold window chamber was used to study the pharmacokinetics of imaging agent uptake immediately after i.v. injection of the probe. Starting 3 days prior to the surgery, mice were daily administered 1 ml of sterile saline subcutaneously at the planned site of the window in order to loosen connective tissue and create a receiving “pocket”. SCID mice were prepared immediately before surgery; the surgical site was shaved, and then a combination of oxygen and isoflurane was used for anesthesia (animals underwent induction with 3.5% isoflurane and were maintained at 1.5-2.0%). The window chamber method utilizes a titanium steel or plexiglass “saddle” that is sutured to the back of the mouse and holds a flap of dorsal skin vertically away from the mouse's body. A small “window” of skin (approximately 5 mm in diameter) was surgically excised from the retained skin flap of the anesthetized SCID mouse. Tumor constructs were engineered using the tumor droplet method. A375/MC1R or A375 parental melanoma cells were suspended in 2.5 mg/ml of type I collagen (BD Biosciences #354249) and 1×DMEM at a final concentration of 2.5×10^6 cells/ml. Using a 48-well non-tissue culture plate, a 15 µl drop of the tumor cell suspension was polymerized in the center of the well. After brief polymerization (10-15 minutes) at 37° C., a microvessel outer layer was added that completely surrounded the droplet. The microvessel outer layer consisted of 3 mg/ml of type I collagen, 1×DMEM and, 12,000 to 15,000 GFP expressing rat microvessel fragments/ml. After 4-6 days of culture at 37 C, the constructs were then implanted into the “window chamber” by placing them directly onto the exposed subcutaneous fascia. A glass cover was then attached to the center of the “saddle” to cover the fascia and implanted tumor cells. […]

[6] = target: T2, MC5R; settings: footnote: value denotes an EC50; read-out: EC50 MC5R (values derived from literature); cited from earlier work

Compound: NC(=O)[C@H](Cc1c[nH]c2ccccc12)NC(=O)[C@H](CCCN=C(N)N)NC(=O)[C@@H](Cc1ccccc1)NC(=O)[C@H](Cc1cnc[nH]1)NC(=O)CCCc1ccccc1 [Compound 1, 4-phenylbutyryl-His-DPhe-Arg-Trp-NH2]
pKi [1]: 11.00

pKi ([2]; read-out: Ki MC4R (values determined)): 8.76
pKi ([3]; read-out: Ki MC5R (values determined)): 8.83
Compound: C#CCCCC(=O)NCCCC[C@H](N)C(=O)N[C@@H](Cc1ccc(O)cc1)C(=O)N[C@H](C(=O)N[C@@H](CCCC)C(=O)NCC(=O)N[C@@H](Cc1cnc[nH]1)C(=O)N[C@H](Cc1ccc2ccccc2c1)C(=O)N[C@@H](CCCNC(=N)N)C(=O)N[C@H](Cc1c[nH]c2ccccc12)C(=O)N[C@@H](CC(=O)O)C(=O)N[C@@H](CCCNC(=N)N)C(=O)N[C@@H](Cc1ccccc1)C(=O)NCC(N)=O)C(C)C [Compound 6, H-Lys(hex-5-ynoyl)-Tyr-Val-Nle-Gly-His-DNal(2′)-Arg-DTrp-Asp-Arg-Phe-Gly-NH2]

Ki MC4R (values determined) [2]: no affinity
Ki MC5R (values determined) [3]: no affinity
Ki MC1R (values determined) [4]: no affinity
Compound: N=C(N)NCCC[C@H](NC(=O)[C@@H](Cc1ccccc1)NC(=O)[C@H](Cc1c[nH]cn1)NC(=O)C=Cc1ccc(O)cc1)C(=O)N[C@@H](Cc1c[nH]c2ccccc12)C(N)=O [Compound 3, 4-hydroxycinnamoyl-His-DPhe-Arg-Trp-NH2]

Compound: MC1R-Cy5: MC1R ligand conjugated to Cy5 maleimide dye ({Butanoyl(4-Ph)}-H[dF]RWGK([Mpa-Cy5 maleimide])-NH2)
tumor cell internalization of probe [5]: fully internalized
tumor cell internalization of probe ([5]; listed as MC1R-635 probe): detected inside the cells
time at which probe binds tumor cells in vivo ([5]; after i.v. injection, 5 nmol/kg): ≤ 5 min

Compound: CCCC[C@H](NC(=O)[C@@H](NC(=O)[C@@H](N)Cc1ccc(O)cc1)C(C)C)C(=O)NCC(=O)N[C@@H](Cc1cnc[nH]1)C(=O)N[C@H](Cc1ccc2ccccc2c1)C(=O)N[C@@H](CCCN=C(N)N)C(=O)N[C@H](Cc1c[nH]c2ccccc12)C(=O)N[C@@H](CC(=O)O)C(=O)N[C@@H](CCCN=C(N)N)C(=O)N[C@@H](Cc1ccccc1)C(=O)NCC(N)=O [Compound 5, H-Tyr-Val-Nle-Gly-His-DNal(2′)-Arg-DTrp-Asp-Arg-Phe-Gly-NH2]
pEC50 [6]: 8.46
